Data on 30 molecules can be found in patent US8513238B2 (Hoffmann-La Roche Inc., priority 2010, dated 2013).

Counter-ions that a name gives are not always drawn.

T1 sequence (P37288 whole entry): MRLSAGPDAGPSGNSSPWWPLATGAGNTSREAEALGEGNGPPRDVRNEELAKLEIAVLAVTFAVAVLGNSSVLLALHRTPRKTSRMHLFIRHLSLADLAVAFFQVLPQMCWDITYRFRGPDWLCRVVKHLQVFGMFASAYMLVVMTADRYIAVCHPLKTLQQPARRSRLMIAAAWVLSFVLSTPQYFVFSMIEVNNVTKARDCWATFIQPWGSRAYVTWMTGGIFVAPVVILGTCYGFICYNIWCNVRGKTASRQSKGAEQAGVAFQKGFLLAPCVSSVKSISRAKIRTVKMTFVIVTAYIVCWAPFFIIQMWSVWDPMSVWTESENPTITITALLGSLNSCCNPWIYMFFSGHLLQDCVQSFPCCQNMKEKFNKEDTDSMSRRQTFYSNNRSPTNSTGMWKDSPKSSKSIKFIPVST

The experiment has as its target T1, human V1a receptor (Homo sapiens, UniProt P37288).
T1 construct: expressed in transfected cells; host or cells: HEK293 cells, transiently transfected; membranes prepared
The experiment can be described thus: human V1a receptor binding (3H-Vasopressin SPA, HEK293 membranes). To be noted: membranes of HEK293 cells transiently transfected with human V1a receptor, Ki by Cheng-Prussoff, read-out: pKi (hV1a) (converted). The method in brief:
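HEK293 membranes transiently expressing cloned human V1a receptor, bound to yttrium silicate SPA beads in Tris/NaCl/KCl/CaCl2/MgCl2 buffer. Test compounds in 2% DMSO competed with 3H-vasopressin (4 nM solution added) for 1 h at room temperature; non-specific binding defined with cold vasopressin. IC50 from non-linear fit, Ki via Cheng-Prusoff.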
In the case of `CC(C)(C)OC(=O)N1Cc2cc(Cl)ccc2-n2c(nnc2[C@H]2CC[C@H](c3ncco3)CC2)C1` [Example 1, trans-8-Chloro-1-(4-oxazol-2-yl-cyclohexyl)-4H,6H-2,3,5,10b-tetraaza-benzo[e]azulene-5-carboxylic acid tert-butyl ester], the Ki was 1 nM.

For `Cc1nn([C@H]2CC[C@H](c3nnc4n3-c3ccc(Cl)cc3CN(C)C4)CC2)c(C)c1C` [Example 120, trans-8-Chloro-1-[4-(3,4,5-trimethyl-pyrazol-1-yl)-cyclohexyl]-5-methyl-5,6-dihydro-4H-2,3,5,10b-tetraaza-benzo[e]azulene], the Ki was 1.95 nM.

As for `Cc1nn([C@H]2CC[C@H](c3nnc4n3-c3ccc(Cl)cc3CN(C(=O)OC(C)(C)C)C4)CC2)c(C)c1C` [Example 118, trans-8-Chloro-1-[4-(3,4,5-trimethyl-pyrazol-1-yl)-cyclohexyl]-4H,6H-2,3,5,10b-tetraaza-benzo[e]azulene-5-carboxylic acid tert-butyl ester], the Ki was 0.832 nM.

As to `Cc1cc([C@H]2CC[C@H](c3nnc4n3-c3ccc(Cl)cc3CNC4)CC2)no1` [Example 23, trans-8-Chloro-1-[4-(5-methyl-isoxazol-3-yl)-cyclohexyl]-5,6-dihydro-4H-2,3,5,10b-tetraaza-benzo[e]azulene hydrochloride], the Ki was 6.46 nM.

For the molecule `Cc1cc([C@H]2CC[C@H](c3nnc4n3-c3ccc(Cl)cc3CN(C)C4)CC2)no1` [Example 24, trans-8-Chloro-1-[4-(5-methyl-isoxazol-3-yl)-cyclohexyl]-5-methyl-5,6-dihydro-4H-2,3,5,10b-tetraaza-benzo[e]azulene], the Ki was 1.2 nM.

In the case of `Clc1ccc2c(c1)CNCc1nnc([C@H]3CC[C@H](c4noc5c4CCCC5)CC3)n1-2` [Example 55, trans-8-Chloro-1-[4-(4,5,6,7-tetrahydro-benzo[d]isoxazol-3-yl)-cyclohexyl]-5,6-dihydro-4H-2,3,5,10b-tetraaza-benzo[e]azulene], the Ki is 5.89 nM.

On to `Cc1nc([C@H]2CC[C@H](c3nnc4n3-c3ccc(Cl)cc3CNC4)CC2)no1` [Example 73, trans-8-Chloro-1-[4-(5-methyl-[1,2,4]oxadiazol-3-yl)-cyclohexyl]-5,6-dihydro-4H-2,3,5,10b-tetraaza-benzo[e]azulene hydrochloride], for which the Ki was 15.8 nM.

In the case of `Cc1onc([C@H]2CC[C@H](c3nnc4n3-c3ccc(Cl)cc3CNC4)CC2)c1C` [Example 40, trans-8-Chloro-1-[4-(4,5-dimethyl-isoxazol-3-yl)-cyclohexyl]-5,6-dihydro-4H-2,3,5,10b-tetraaza-benzo[e]azulene], the Ki was 4.79 nM.

As for `Clc1ccc2c(c1)CNCc1nnc([C@H]3CC[C@H](n4cccn4)CC3)n1-2` [Example 110, trans-8-Chloro-1-(4-pyrazol-1-yl-cyclohexyl)-5,6-dihydro-4H-2,3,5,10b-tetraaza-benzo[e]azulene], the Ki was 42.7 nM.

`CN1Cc2cc(Cl)ccc2-n2c(nnc2[C@H]2CC[C@@H](n3cccn3)CC2)C1` [Example 114, cis-8-Chloro-5-methyl-1-(4-pyrazol-1-yl-cyclohexyl)-5,6-dihydro-4H-2,3,5,10b-tetraaza-benzo[e]azulene]: the Ki was 794 nM.

As for `CCc1nc([C@H]2CC[C@H](c3nnc4n3-c3ccc(Cl)cc3CN(C)C4)CC2)no1` [Example 88], the Ki was 14.5 nM.

Consider `CN1Cc2cc(Cl)ccc2-n2c(nnc2[C@H]2CC[C@H](c3ncco3)CC2)C1` [Example 3, trans-8-Chloro-5-methyl-1-(4-oxazol-2-yl-cyclohexyl)-5,6-dihydro-4H-2,3,5,10b-tetraaza-benzo[e]azulene], for which the Ki is 10.5 nM.

For the molecule `Cc1nc([C@H]2CC[C@H](c3nnc4n3-c3ccc(Cl)cc3CNC4)CC2)cs1` [Example 20, trans-8-Chloro-1-[4-(2-methyl-thiazol-4-yl)-cyclohexyl]-5,6-dihydro-4H-2,3,5,10b-tetraaza-benzo[e]azulene], the Ki is 12.3 nM.

Turning to `Cc1onc([C@H]2CC[C@H](c3nnc4n3-c3ccc(Cl)cc3CN(C)C4)CC2)c1F` [Example 47, trans-8-Chloro-1-[4-(4-fluoro-5-methyl-isoxazol-3-yl)-cyclohexyl]-5-methyl-5,6-dihydro-4H-2,3,5,10b-tetraaza-benzo[e]azulene], the Ki is 0.575 nM.

Regarding `Cc1nnc([C@H]2CC[C@H](c3nnc4n3-c3ccc(Cl)cc3CN(C(=O)OC(C)(C)C)C4)CC2)o1` [Example 63, trans-8-Chloro-1-[4-(5-methyl-[1,3,4]oxadiazol-2-yl)-cyclohexyl]-4H,6H-2,3,5,10b-tetraaza-benzo[e]azulene-5-carboxylic acid tert-butyl ester], the Ki is 1.58 nM.

Regarding `Cc1onc([C@H]2CC[C@H](c3nnc4n3-c3ccc(Cl)cc3CN(C)C4)CC2)c1Cl` [Example 44, trans-8-Chloro-1-[4-(4-chloro-5-methyl-isoxazol-3-yl)-cyclohexyl]-5-methyl-5,6-dihydro-4H-2,3,5,10b-tetraaza-benzo[e]azulene], the Ki is 0.603 nM.

For the molecule `Cc1csc([C@H]2CC[C@H](c3nnc4n3-c3ccc(Cl)cc3CN(C)C4)CC2)n1` [Example 18, trans-8-Chloro-5-methyl-1-[4-(4-methyl-thiazol-2-yl)-cyclohexyl]-5,6-dihydro-4H-2,3,5,10b-tetraaza-benzo[e]azulene], the Ki was 1.7 nM.

`Cc1onc([C@H]2CC[C@H](c3nnc4n3-c3ccc(Cl)cc3CN(C)C4)CC2)c1C` [Example 41, trans-8-Chloro-1-[4-(4,5-dimethyl-isoxazol-3-yl)-cyclohexyl]-5-methyl-5,6-dihydro-4H-2,3,5,10b-tetraaza-benzo[e]azulene]: the Ki was 0.501 nM.

In the case of `CN1Cc2cc(Cl)ccc2-n2c(nnc2[C@H]2CC[C@H](c3onc4c3CCCC4)CC2)C1` [Example 62, trans-8-Chloro-5-methyl-1-[4-(4,5,6,7-tetrahydro-benzo[c]isoxazol-3-yl)-cyclohexyl]-5,6-dihydro-4H-2,3,5,10b-tetraaza-benzo[e]azulene], the Ki is 6.31 nM.

In the case of `CN1Cc2cc(Cl)ccc2-n2c(nnc2[C@H]2CC[C@H](n3cccn3)CC2)C1` [Example 111, trans-8-Chloro-5-methyl-1-(4-pyrazol-1-yl-cyclohexyl)-5,6-dihydro-4H-2,3,5,10b-tetraaza-benzo[e]azulene], the Ki is 17 nM.

`CC(C)c1nc([C@H]2CC[C@H](c3nnc4n3-c3ccc(Cl)cc3CN(C(=O)OC(C)(C)C)C4)CC2)no1` [Example 92, trans-8-Chloro-1-[4-(5-isopropyl-[1,2,4]oxadiazol-3-yl)-cyclohexyl]-4H,6H-2,3,5,10b-tetraaza-benzo[e]azulene-5-carboxylic acid tert-butyl ester]: the Ki is 3.09 nM.

In the case of `Cc1coc([C@H]2CC[C@H](c3nnc4n3-c3ccc(Cl)cc3CN(C(=O)OC(C)(C)C)C4)CC2)n1` [Example 4, trans-8-Chloro-1-[4-(4-methyl-oxazol-2-yl)-cyclohexyl]-4H,6H-2,3,5,10b-tetraaza-benzo[e]azulene-5-carboxylic acid tert-butyl ester], the Ki was 0.398 nM.

`Cc1nc([C@H]2CC[C@H](c3nnc4n3-c3ccc(Cl)cc3CN(C(=O)OC(C)(C)C)C4)CC2)no1` [Example 72, trans-8-Chloro-1-[4-(5-methyl-[1,2,4]oxadiazol-3-yl)-cyclohexyl]-4H,6H-2,3,5,10b-tetraaza-benzo[e]azulene-5-carboxylic acid tert-butyl ester]: the Ki was 0.708 nM.

For `CC(=O)N1Cc2cc(Cl)ccc2-n2c(nnc2[C@H]2CC[C@H](c3cc(C)on3)CC2)C1` [Example 31, trans-1-{8-Chloro-1-[4-(5-methyl-isoxazol-3-yl)-cyclohexyl]-4H,6H-2,3,5,10b-tetraaza-benzo[e]azulen-5-yl}-ethanone], the Ki was 1.74 nM.

For the molecule `Cc1coc([C@H]2CC[C@H](c3nnc4n3-c3ccc(Cl)cc3CN(C)C4)CC2)n1` [Example 6, trans-8-Chloro-5-methyl-1-[4-(4-methyl-oxazol-2-yl)-cyclohexyl]-5,6-dihydro-4H-2,3,5,10b-tetraaza-benzo[e]azulene], the Ki is 3.31 nM.

As for `Cc1onc([C@H]2CC[C@H](c3nnc4n3-c3ccc(Cl)cc3CNC4)CC2)c1F` [Example 46, trans-8-Chloro-1-[4-(4-fluoro-5-methyl-isoxazol-3-yl)-cyclohexyl]-5,6-dihydro-4H-2,3,5,10b-tetraaza-benzo[e]azulene], the Ki is 8.51 nM.

Take `Cc1nc([C@H]2CC[C@H](c3nnc4n3-c3ccc(Cl)cc3CN(C(C)C)C4)CC2)no1` [Example 76, trans-8-Chloro-5-isopropyl-1-[4-(5-methyl-[1,2,4]oxadiazol-3-yl)-cyclohexyl]-5,6-dihydro-4H-2,3,5,10b-tetraaza-benzo[e]azulene]: the Ki was 10 nM.

As to `Cc1cc([C@H]2CC[C@H](c3nnc4n3-c3ccc(Cl)cc3CN(C(=O)OC(C)(C)C)C4)CC2)no1` [Example 22, trans-8-Chloro-1-[4-(5-methyl-isoxazol-3-yl)-cyclohexyl]-4H,6H-2,3,5,10b-tetraaza-benzo[e]azulene-5-carboxylic acid tert-butyl ester], the Ki was 0.302 nM.

Turning to `Cc1nc([C@H]2CC[C@H](c3nnc4n3-c3ccc(Cl)cc3CNC4)CC2)sc1C` [Example 105, trans-8-Chloro-1-[4-(4,5-dimethyl-thiazol-2-yl)-cyclohexyl]-5,6-dihydro-4H-2,3,5,10b-tetraaza-benzo[e]azulene], the Ki was 21.9 nM.

On to `CCc1cc([C@H]2CC[C@@H](c3nnc4n3-c3ccc(Cl)cc3CN(C(=O)OC(C)(C)C)C4)CC2)no1` [Example 48, cis-8-Chloro-1-[4-(5-ethyl-isoxazol-3-yl)-cyclohexyl]-4H,6H-2,3,5,10b-tetraaza-benzo[e]azulene-5-carboxylic acid tert-butyl ester], for which the Ki is 8.32 nM.
